Series [1] has as its target T1, human GluR4B receptor (Homo sapiens, UniProt P48058).
T1 construct: expressed in transfected cells
Kind of series: potentiation of agonist-induced excitability of human GluR4B receptor expressed in HEK 293 cells. Format: cell-based. An excerpt:
The ability of compounds of formula I to potentiate glutamate receptor-mediated response may be determined using fluorescent calcium indicator dyes (Molecular Probes, Eugene, Oreg., Fluo-3) and by measuring glutamate-evoked efflux of calcium into GluR4 transfected HEK293 cells, as described in more detail below.
In one test, 96 well plates containing confluent monolayers of HEK cells stably expressing human GluR4B (obtained as described in European Patent Application Publication Number EP-A1-583917) are prepared. The tissue culture medium in the wells is then discarded, and the wells are each washed once with 200 μl of buffer (glucose, 10 mM, sodium chloride, 138 mM, magnesium chloride, 1 mM, potassium chloride, 5 mM, calcium chloride, 5 mM, N-[2-hydroxyethyl]-piperazine-N-[2-ethanesulfonic acid], 10 mM, to pH 7.1 to 7.3). […]
Each test is then performed as follows. […] A second fluorescent reading is taken after 5 minutes incubation. 15 μl of 400 μM glutamate solution is then added to each well (final glutamate concentration 100 μM), and a third reading is taken. The activities of test compounds and cyclothiazide solutions are determined by subtracting the second from the third reading (fluorescence due to addition of glutamate in the presence or absence of test compound or cyclothiazide) and are expressed relative to enhance fluorescence produced by 100 μM cyclothiazide.

Broadly, the melting point is the temperature of the solid-liquid transition.

T1 sequence (P48058 21-902): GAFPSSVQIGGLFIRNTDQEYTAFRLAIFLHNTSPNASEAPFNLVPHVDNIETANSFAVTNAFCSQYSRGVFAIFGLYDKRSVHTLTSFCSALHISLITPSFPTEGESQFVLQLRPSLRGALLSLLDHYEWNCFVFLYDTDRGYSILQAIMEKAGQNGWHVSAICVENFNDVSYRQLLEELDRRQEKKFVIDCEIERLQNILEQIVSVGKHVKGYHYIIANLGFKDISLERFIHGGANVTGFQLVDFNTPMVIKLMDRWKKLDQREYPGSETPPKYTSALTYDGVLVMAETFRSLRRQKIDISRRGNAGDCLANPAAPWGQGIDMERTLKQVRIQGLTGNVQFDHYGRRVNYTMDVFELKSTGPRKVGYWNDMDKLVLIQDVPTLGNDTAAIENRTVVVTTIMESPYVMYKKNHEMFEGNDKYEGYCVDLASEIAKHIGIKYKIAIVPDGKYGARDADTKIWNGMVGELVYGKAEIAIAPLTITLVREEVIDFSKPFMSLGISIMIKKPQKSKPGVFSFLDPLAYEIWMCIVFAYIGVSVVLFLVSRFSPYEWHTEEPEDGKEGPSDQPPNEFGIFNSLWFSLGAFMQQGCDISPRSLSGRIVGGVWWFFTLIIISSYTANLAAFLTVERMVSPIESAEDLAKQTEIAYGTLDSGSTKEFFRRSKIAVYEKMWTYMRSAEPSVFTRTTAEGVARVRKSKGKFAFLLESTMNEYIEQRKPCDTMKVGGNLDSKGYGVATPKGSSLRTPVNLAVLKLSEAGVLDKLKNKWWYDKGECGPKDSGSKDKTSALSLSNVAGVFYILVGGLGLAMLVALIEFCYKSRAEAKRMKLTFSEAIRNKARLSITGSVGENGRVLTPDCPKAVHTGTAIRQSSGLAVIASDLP

Take `CC(C)S(=O)(=O)NCC(F)c1ccc(-c2ccccc2)cc1` (centres unmarked): the melting point was in the range of 89 to 91 °C.
As to `NS(=O)(=O)c1cc2c(cc1Cl)NC(C1CC3C=CC1C3)NS2(=O)=O` (centres unmarked) [cyclothiazide], the “potentiation of agonist-induced excitability” value in series [1] is “potentiate agonist-induced excitability”.
